{"source": "paper PMC10146204", "about": "“Inhibition of Acetylcholinesterase by Novel Lupinine Derivatives” (Molecules, 2023)", "note": "Entries after “also recorded” stand apart in the source; their conditions may differ.", "data": [{"target": "T1, AChE (Homo sapiens, UniProt P22303)", "T1 construct": "purchased Sigma-Aldrich Chemical Co", "T1 sequence (P22303 32-614)": "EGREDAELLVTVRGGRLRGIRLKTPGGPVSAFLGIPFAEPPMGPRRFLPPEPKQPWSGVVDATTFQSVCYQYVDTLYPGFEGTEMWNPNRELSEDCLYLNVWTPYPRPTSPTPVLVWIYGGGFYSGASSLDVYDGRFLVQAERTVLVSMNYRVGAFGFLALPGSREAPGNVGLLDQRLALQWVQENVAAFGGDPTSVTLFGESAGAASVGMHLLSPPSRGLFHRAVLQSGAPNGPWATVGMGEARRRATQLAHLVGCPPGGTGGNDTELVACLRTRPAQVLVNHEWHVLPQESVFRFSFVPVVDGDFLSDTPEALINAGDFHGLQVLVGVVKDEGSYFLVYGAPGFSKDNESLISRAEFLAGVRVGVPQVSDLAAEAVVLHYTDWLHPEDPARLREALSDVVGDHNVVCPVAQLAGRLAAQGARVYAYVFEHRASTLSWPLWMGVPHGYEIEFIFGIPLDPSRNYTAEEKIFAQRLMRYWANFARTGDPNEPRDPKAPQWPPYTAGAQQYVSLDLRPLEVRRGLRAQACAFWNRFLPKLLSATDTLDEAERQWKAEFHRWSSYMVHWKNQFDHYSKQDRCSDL", "experiment": "not given", "details": "previously reported AChE inhibitors with a 4-benzyloxyphenyl moiety; ref [36],[37],[38]; read-out: AChE inhibitory activity IC50 of previously reported inhibitors; cited from earlier work", "units": {"IC50": "µM"}, "values": [{"molecule": "Cn1c(/C=N/Nc2ccc(OCc3ccccc3)cc2)nc2ccccc21", "note": "[Compound A, (E)-2-((2-(4-(benzyloxy)phenyl)hydrazineylidene)methyl)-1-methylbenzimidazole]", "IC50": 11.8}, {"molecule": "CCc1nnc(/N=C2\\NC(=O)/C(=C\\c3ccc(OCc4ccccc4)cc3)S2)s1", "note": "[Compound B, (E)-5-((E)-4-(benzyloxy)benzylidene)-2-((5-ethyl-1,3,4-thiadiazol-2-yl)imino)thiazolidin-4-one]", "IC50": 1.2}, {"molecule": "COc1cc(/C=C/C(=O)NCCNc2cc(C)nc3ccccc23)ccc1OCc1ccccc1", "note": "[Compound C, (E)-3-(4-(benzyloxy)-3-methoxyphenyl)-N-(2-((2-methylquinolin-4-yl)amino)ethyl)acrylamide]", "IC50": 0.6}]}, {"target": "T1, AChE", "experiment": "biochemical", "format": "biochemical", "details": "not given", "source_text": "(§1) The kit is based on an improved Ellman method, whereby thiocholine produced from AChE activity forms a yellow color with 5,5′-dithiobis(2-nitrobenzoic acid), and the intensity the color (412 nm) is proportional to the enzyme activity.", "units": {"IC50": "µM"}, "values": [{"molecule": "O=C(CCCCl)OC[C@@H]1CCCN2CCCC[C@H]12", "note": "[Compound 22]", "IC50": "39.5 ± 7.2"}, {"molecule": "O=C(Nc1ccc(Cl)c(Cl)c1)OC[C@@H]1CCCN2CCCC[C@H]12", "note": "[Compound 41]", "IC50": "99.4 ± 12.3"}]}, {"target": "T1, AChE", "experiment": "biochemical", "format": "biochemical", "details": "Experimentally determined class, Active or NA", "source_text": "as §1", "values": [{"molecule": "O=C(CCCCl)OC[C@@H]1CCCN2CCCC[C@H]12", "note": "[Compound 22]", "Observed class for AChE inhibitory activity": "Active"}, {"molecule": "CC1(C)CC(=O)c2c(C(=O)OC[C@@H]3CCCN4CCCC[C@H]34)coc2C1", "note": "[Compound 25]", "Observed class for AChE inhibitory activity": "Active"}]}, {"target": "T1, AChE", "experiment": "biochemical", "format": "biochemical", "details": "N.A.: no activity was observed at the highest concentration tested (150 µM); 5–7 tested concentrations; read-out: AChE inhibitory activity IC50", "source_text": "as §1", "units": {"IC50": "µM"}, "values": [{"molecule": "Nc1nc(SCc2cn(C[C@@H]3CCCN4CCCC[C@H]34)nn2)n[nH]1", "note": "[Compound 5, 3-((1-(((1S,9aR)-Octahydro-1H-quinolizine-1-yl)methyl)-1H-1,2,3-triazole-4-yl)methylthio)-1H-1,2,4-triazole-5-amine]", "IC50": "101 ± 23.9"}, {"molecule": "CCOc1cc(C=O)ccc1OCc1cn(C[C@@H]2CCCN3CCCC[C@H]23)nn1", "note": "[Compound 7, 3-Ethoxy-4-((1-(((1S,9aR)-octahydro-1H-quinolizine-1-yl)methyl)-1H-1,2,3-triazole-4-yl)methoxy)benzaldehyde]", "IC50": "73.4 ± 16.7"}, {"molecule": "COc1cccc(-c2cn(C[C@@H]3CCCN4CCCC[C@H]34)nn2)c1", "note": "[Compound 13]", "IC50": "51.8 ± 9.2"}, {"molecule": "COc1cc(-c2cn(C[C@@H]3CCCN4CCCC[C@H]34)nn2)ccc1OCc1ccccc1", "note": "[Compound 15, (1S,9aR)-1-((4-(4-(benzyloxy)-3-methoxyphenyl)-1H-1,2,3-triazol-1-yl)methyl)octahydro-2H-quinolizine]", "IC50": 7.2}, {"molecule": "CCc1cc(C(=O)OCc2cn(C[C@@H]3CCCN4CCCC[C@H]34)nn2)c(O)c(C(C)(C)C)c1", "note": "[Compound 16]", "IC50": "141 ± 15.3"}, {"molecule": "O=Cc1ccc(OCc2cn(C[C@@H]3CCCN4CCCC[C@H]34)nn2)cc1", "note": "[Compound 17]", "IC50": "68.1 ± 2.2"}, {"molecule": "CC1(C)CC(=O)c2c(C(=O)OC[C@@H]3CCCN4CCCC[C@H]34)coc2C1", "note": "[Compound 25]", "IC50": "24.4 ± 3.4"}, {"molecule": "COc1ccccc1/C=C/C(=O)OC[C@@H]1CCCN2CCCC[C@H]12", "note": "[Compound 43]", "IC50": "89.6 ± 7.7"}, {"molecule": "O=C1CC(C(=O)OC[C@@H]2CCCN3CCCC[C@H]23)C2(CCCCC2)O1", "note": "(some centres unmarked) [Compound 44]", "IC50": "68.9 ± 5.8"}, {"molecule": "COc1cccc(/C=C/C(=O)OC[C@@H]2CCCN3CCCC[C@H]23)c1OC", "note": "[Compound 49]", "IC50": "111 ± 12.5"}, {"molecule": "Cc1cc(C)c(C(=O)OC[C@@H]2CCCN3CCCC[C@H]23)cc1C", "note": "[Compound 64]", "IC50": "74.1 ± 6.8"}]}, {"target": "T1, AChE", "experiment": "biochemical", "format": "biochemical", "details": "double-reciprocal Lineweaver–Burk plot", "source_text": "as §1", "values": [{"molecule": "COc1cc(-c2cn(C[C@@H]3CCCN4CCCC[C@H]34)nn2)ccc1OCc1ccccc1", "note": "[Compound 15, (1S,9aR)-1-((4-(4-(benzyloxy)-3-methoxyphenyl)-1H-1,2,3-triazol-1-yl)methyl)octahydro-2H-quinolizine]", "Mechanism of AChE inhibition (Lineweaver–Burk plot)": "mixed type of inhibition; also recorded: mixed-type mechanism"}]}, {"test_system": "human THP-1 monocytic cells", "experiment": "Cytotoxicity assay (CellTiter-Glo Luminescent Cell Viability Assay)", "format": "cell-based", "details": "THP-1 cells, concentrations up to 50 μM, 24 h", "protocol": "The cytotoxicity of the synthesized compounds was analyzed using a CellTiter-Glo Luminescent Cell Viability Assay Kit (Promega, Madison, WI, USA) according to the manufacturer’s protocol. Human THP-1 monocytic cells obtained from ATCC (Manassas, VA, USA) were cultured in RPMI 1640 medium (Mediatech Inc., Herndon, VA, USA) supplemented with 10% (v/v) FBS, 100 μg/mL streptomycin, and 100 U/mL penicillin. For the cytotoxicity assay, the cells were cultured at a density of 10^4 cells/well with different concentrations of the test compounds added ([…], 12.5, 25, 50 μM; final concentration of DMSO was 1%) for 24 h at 37 °C and 5% CO2. Following treatment, substrate was added to the cells, and the samples were analyzed with a Fluoroscan Ascent FL microplate reader.", "values": [{"molecule": "[(1R,9aR)-octahydro-2H-quinolizin-1-yl]methane [Lupinine]", "Cytotoxicity": "no cytotoxicity"}]}]}
